Consider 37 molecules from US9771370B2, “Compounds for the inhibition of indoleamine-2,3-dioxygenase” (Merck Patent GmbH, priority 2014, dated 2017).

Values joined by “and” are separate entries in the source; they are usually repeats but may differ in a detail not shown here. Equal values may be shown once.

Sequence of Recombinant human IDO (P14902 whole entry): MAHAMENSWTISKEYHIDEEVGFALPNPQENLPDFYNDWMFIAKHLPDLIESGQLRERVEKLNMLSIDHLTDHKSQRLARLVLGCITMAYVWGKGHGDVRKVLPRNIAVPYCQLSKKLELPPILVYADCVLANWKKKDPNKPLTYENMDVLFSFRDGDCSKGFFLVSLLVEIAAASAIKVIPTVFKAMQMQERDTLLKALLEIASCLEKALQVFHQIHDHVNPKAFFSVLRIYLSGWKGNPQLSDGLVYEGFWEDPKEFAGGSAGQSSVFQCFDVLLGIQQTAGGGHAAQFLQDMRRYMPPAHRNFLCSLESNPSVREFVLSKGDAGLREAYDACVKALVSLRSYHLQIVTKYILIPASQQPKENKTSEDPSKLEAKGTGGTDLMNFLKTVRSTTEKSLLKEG

The assay addresses Recombinant human IDO (Homo sapiens, UniProt P14902). The experiment in a line: Bridge-IT tryptophan fluorescence assay of human IDO-1 inhibition. The class given is biochemical. The conditions noted are these: recombinant human IDO 7.5 nM, L-tryptophan. The method in brief: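 One variant ran L-Trp at 100 μM for 90 min at 37 °C. The other pre-incubated compound for 30 min at 25 °C, then ran 50 μM L-Trp for 60 min at 25 °C.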
The IC50 is the concentration needed to halve the response being measured. For `NS(=O)(=O)C1CCC(F)(CCC2c3ccccc3-c3cncn32)CC1` (single isomer, unassigned) [Compound 121c, 4-fluoro-4-[2-[5H-imidazo[4,3-a]isoindol-5-yl]ethyl]cyclohexane-1-sulfonamide], the half-inhibitory concentration (IC50) was over 1 µM.

In the case of `NS(=O)(=O)C1CCC(F)(CCC2c3ccccc3-c3cncn32)CC1` (single isomer, unassigned) [Compound 121d, 4-fluoro-4-[2-[5H-imidazo[4,3-a]isoindol-5-yl]ethyl]cyclohexane-1-sulfonamide], the half-inhibitory concentration (IC50) was under 0.1 µM.

Regarding `OC(CC1c2c(ccnc2F)-c2cncn21)C1CCCCC1` (stereo not shown) [Compound 2a, 1-Cyclohexyl-2-[9-fluoro-4,6,10-triazatricyclo[6.4.0.0^[2,6]]dodeca-1(8),2,4,9,11-pentaen-7-yl]ethan-1-ol], the concentration for half-maximal inhibition (IC50) is over 1 µM.

`OC(CC1c2c(F)cncc2-c2cncn21)C1CCCCC1` (stereo not shown) [Compound 3a, 1-cyclohexyl-2-[9-fluoro-4,6,11-triazatricyclo[6.4.0.0^[2,6]]dodeca-1(8),2,4,9,11-pentaen-7-yl]ethan-1-ol]: the half-maximal inhibitory concentration (IC50) was over 1 µM.

For the molecule `OC1CCC(C(O)CC2c3ncccc3-c3cncn32)CC1` (stereo not shown) [Compound 6a, 4-[1-hydroxy-2-[4,6,9-triazatricyclo[6.4.0.0^[2,6]]dodeca-1(8),2,4,9,11-pentaen-7-yl]ethyl]cyclohexan-1-ol], the IC50 is over 1 µM.

Take `OC(CC1c2cnccc2-c2cncn21)C1CCCCC1` (stereo not shown) [Compound 9a, 1-Cyclohexyl-2-[4,6,10-triazatricyclo[6.4.0.0^[2,6]]dodeca-1(8),2,4,9,11-pentaen-7-yl]ethan-1-ol]: the IC50 was over 1 µM.

Consider `COc1cc2c(cn1)-c1cncn1C2CC(O)C1CCCCC1` (stereo not shown) [Compound 11b, 1-cyclohexyl-2-[10-methoxy-4,6,11-triazatricyclo[6.4.0.0^[2,6]]dodeca-1(8),2,4,9,11-pentaen-7-yl]ethan-1-ol], for which the 50% inhibitory concentration (IC50) is over 1 µM.

Take `OC(CC1c2ncccc2-c2cncn21)c1ccccc1` (stereo not shown) [Compound 12b, 1-Phenyl-2-[4,6,9-triazatricyclo[6.4.0.0^[2,6]]dodeca-1(8),2,4,9,11-pentaen-7-yl]ethan-1-ol]: the half-inhibitory concentration (IC50) is over 1 µM.

Turning to `O[C@H]1CC[C@](F)(CC[C@@H]2c3ccccc3-c3cncn32)CC1` [Compound 14a, (1R,4s)-4-(2-((R)-5H-imidazo[5,1-a]isoindol-5-yl)ethyl)-4-fluorocyclohexan-1-ol], the IC50 was over 1 µM.

With `O[C@H]1CC[C@](F)(CC[C@H]2c3ccccc3-c3cncn32)CC1` [Compound 14b, (1S,4s)-4-(2-((S)-5H-imidazo[5,1-a]isoindol-5-yl)ethyl)-4-fluorocyclohexan-1-ol], the half-inhibitory concentration (IC50) was under 0.1 µM.

In the case of `Fc1ccc2c(n1)C(CCC1(F)CCCCC1)n1cncc1-2` (stereo not shown) [Compound 17, 10-fluoro-7-[2-(1-fluorocyclohexyl)ethyl]-4,6,9-triazatricyclo[6.4.0.0^[2,6]]dodeca-1(8),2,4,9,11-pentaene], the half-inhibitory concentration (IC50) is 0.1 to 1 µM.

`NC(CC1c2ncccc2-c2cncn21)C1CCCCC1` (stereo not shown) [Compound 21a, 1-cyclohexyl-2-[4,6,9-triazatricyclo[6.4.0.0^[2,6]]dodeca-1(8),2,4,9,11-pentaen-7-yl]ethan-1-amine]: the half-inhibitory concentration (IC50) was over 1 µM.

As to `OC(CC1c2nc(F)ccc2-c2cncn21)C1CCCCC1` (stereo not shown) [Compound 31a, 1-cyclohexyl-2-[10-fluoro-4,6,9-triazatricyclo[6.4.0.0^[2,6]]dodeca-1(8),2,4,9,11-pentaen-7-yl]ethan-1-ol], the IC50 was 0.1 to 1 µM.

As to `COc1ccc2c(n1)C(CC(O)C1CCC(F)(F)CC1)n1cncc1-2` (stereo not shown) [Compound 33a, 1-(4,4-difluorocyclohexyl)-2-[10-methoxy-4,6,9-triazatricyclo[6.4.0.0^[2,6]]dodeca-1(8),2,4,9,11-pentaen-7-yl]ethan-1-ol], the IC50 was in the range of 0.1 to 1 µM.

For the molecule `COc1cccc2c1-c1cncn1C2CCC1(F)CCC(O)CC1` (stereo not shown) [Compound 41a, 4-fluoro-4-(2-(9-methoxy-5H-imidazo[5,1-a]isoindol-5-yl)ethyl)cyclohexanol], the IC50 is over 1 µM.

Turning to `Oc1cccc2c1-c1cncn1C2CCC1(F)CCC(O)CC1` (stereo not shown) [Compound 44a, 5-(2-(1-fluoro-4-hydroxycyclohexyl)ethyl)-5H-imidazo[5,1-a]isoindol-9-ol], the IC50 fell in the range of 0.1 to 1 µM.

As to `Fc1ccc2c(n1)C(CCC1(F)CCC(F)(F)CC1)n1cncc1-2` (stereo not shown) [Compound 46, 10-fluoro-7-[2-(1,4,4-trifluorocyclohexyl)ethyl]-4,6,9-triazatricyclo[6.4.0.0^[2,6]]dodeca-1(8),2,4,9,11-pentaene], the IC50 was over 1 µM.

As for `OC1CCC(CCC2c3ncccc3-c3cncn32)CC1` (stereo not shown) [Compound 47, 4-(2-[4,6,9-triazatricyclo[6.4.0.0^[2,6]]dodeca-1(8),2,4,9,11-pentaen-7-yl]ethyl)cyclohexan-1-ol], the IC50 is over 1 µM.

As for `FC1(F)CCC(CCC2c3ncccc3-c3cncn32)CC1` (stereo not shown) [Compound 49, 7-[2-(4,4-difluorocyclohexyl)ethyl]-4,6,9-triazatricyclo[6.4.0.0^[2,6]]dodeca-1(8),2,4,9,11-pentaene], the 50% inhibitory concentration (IC50) lay in the range of 0.1 to 1 µM.

With `c1cnc2c(c1)-c1cncn1C2CCC1CCCCC1` (stereo not shown) [Compound 50, 7-(2-cyclohexylethyl)-4,6,9-triazatricyclo[6.4.0.0^[2,6]]dodeca-1(8),2,4,9,11-pentaene], the 50% inhibitory concentration (IC50) fell in the range of 0.1 to 1 µM.

On to `CC1(C)CCC(CCC2c3ncccc3-c3cncn32)CC1` (stereo not shown) [Compound 51, 7-[2-(4,4-dimethylcyclohexyl)ethyl]-4,6,9-triazatricyclo[6.4.0.0^[2,6]]dodeca-1(8),2,4,9,11-pentaene], for which the IC50 is over 1 µM.

As to `OC(CC1c2nc(Cl)ccc2-c2cncn21)C1CCC(F)(F)CC1` (stereo not shown) [Compound 52b, 2-[10-chloro-4,6,9-triazatricyclo[6.4.0.0^[2,6]]dodeca-1(8),2,4,9,11-pentaen-7-yl]-1-(4,4-difluorocyclohexyl)ethan-1-ol], the half-maximal inhibitory concentration (IC50) was in the range of 0.1 to 1 µM.

As for `COc1ccc2c(n1)C(CC(O)C1CCC3(CC1)CC3)n1cncc1-2` (stereo not shown) [Compound 53a, 2-[10-methoxy-4,6,9-triazatricyclo[6.4.0.0^[2,6]]dodeca-1(8),2,4,9,11-pentaen-7-yl]-1-[spiro[2.5]octan-6-yl]ethan-1-ol], the concentration for half-maximal inhibition (IC50) lay within 0.1 to 1 µM.

On to `OC(CC1c2nc(C3CC3)ccc2-c2cncn21)C1CCCCC1` (stereo not shown) [Compound 56a, 1-cyclohexyl-2-[10-cyclopropyl-4,6,9-triazatricyclo[6.4.0.0^[2,6]]dodeca-1(8),2,4,9,11-pentaen-7-yl]ethan-1-ol], for which the IC50 is under 0.1 µM.

As to `OC(CC1c2nc(C3CC3)ccc2-c2cncn21)C1CCC(F)(F)CC1` (stereo not shown) [Compound 57a, 2-[10-cyclopropyl-4,6,9-triazatricyclo[6.4.0.0^[2,6]]dodeca-1(8),2,4,9,11-pentaen-7-yl]-1-(4,4-difluorocyclohexyl)ethan-1-ol], the IC50 was over 1 µM.

In the case of `NC(=O)C1CCC(C(O)CC2c3ncccc3-c3cncn32)CC1` (stereo not shown) [Compound 63a, 4-[1-hydroxy-2-[4,6,9-triazatricyclo[6.4.0.0^[2,6]]dodeca-1(8),2,4,9,11-pentaen-7-yl]ethyl]cyclohexane-1-carboxamide], the 50% inhibitory concentration (IC50) was over 1 µM.

`OC(CC1c2ncncc2-c2cncn21)C1CCCCC1` (stereo not shown) [Compound 67a, 1-cyclohexyl-2-[4,6,9,11-tetraazatricyclo[6.4.0.0^[2,6]]dodeca-1(8),2,4,9,11-pentaen-7-yl]ethan-1-ol]: the IC50 was > 1 µM and 0.1 to 1 µM.

`OCC1CCC(C(O)CC2c3ncccc3-c3cncn32)CC1` (stereo not shown) [Compound 73a, 1-[4-(hydroxymethyl)cyclohexyl]-2-[4,6,9-triazatricyclo[6.4.0.0^[2,6]]dodeca-1(8),2,4,9,11-pentaen-7-yl]ethan-1-ol]: the IC50 was over 1 µM.

Consider `OC1CCC(C(F)(F)CC2c3c(F)cccc3-c3cncn32)CC1` (stereo not shown) [Compound 75a, 4-(1,1-difluoro-2-[6-fluoro-5H-imidazo[4,3-a]isoindol-5-yl]ethyl)cyclohexan-1-ol], for which the 50% inhibitory concentration (IC50) is under 0.1 µM.

With `OC1(C2CCC(F)(CCC3c4c(F)cccc4-c4cncn43)CC2)CC1` (stereo not shown) [Compound 85b, 1-[4-fluoro-4-(2-[6-fluoro-5H-imidazo[4,3-a]isoindol-5-yl]ethyl)cyclohexyl]cyclopropan-1-ol], the half-inhibitory concentration (IC50) lay in the range of 0.1 to 1 µM.

In the case of `CC(C)(O)C1CCC(F)(CCC2c3c(F)cccc3-c3cncn32)CC1` (stereo not shown) [Compound 86a, 2-[4-fluoro-4-(2-[6-fluoro-5H-imidazo[4,3-a]isoindol-5-yl]ethyl)cyclohexyl]propan-2-ol], the IC50 was in the range of 0.1 to 1 µM.

With `OC1CCC(F)(CCC2c3nccc(F)c3-c3cncn32)CC1` (stereo not shown) [Compound 103b, 4-fluoro-4-(2-[12-fluoro-4,6,9-triazatricyclo[6.4.0.0^[2,6]]dodeca-1(8),2,4,9,11-pentaen-7-yl]ethyl)cyclohexan-1-ol], the half-inhibitory concentration (IC50) is over 1 µM.

`OC1(C2CCC(F)(CCC3c4c(Cl)cccc4-c4cncn43)CC2)CC1` (stereo not shown) [Compound 106b, 1-[4-(2-[6-chloro-5H-imidazo[4,3-a]isoindol-5-yl]ethyl)-4-fluorocyclohexyl]cyclopropan-1-ol]: the IC50 lay in the range of 0.1 to 1 µM.

On to `CC(C)(O)C1CCC(F)(CCC2c3c(Cl)cccc3-c3cncn32)CC1` (stereo not shown) [Compound 107b, 2-[4-(2-[6-chloro-5H-imidazo[4,3-a]isoindol-5-yl]ethyl)-4-fluorocyclohexyl]propan-2-ol], for which the half-inhibitory concentration (IC50) was 0.1 to 1 µM.

In the case of `OC(CC1c2ncccc2-c2cncn21)C1(F)CCCCC1` (stereo not shown) [Compound 109b, 1-(1-fluorocyclohexyl)-2-[4,6,9-triazatricyclo[6.4.0.0^[2,6]]dodeca-1(8),2,4,9,11-pentaen-7-yl]ethan-1-ol], the concentration for half-maximal inhibition (IC50) fell in the range of 0.1 to 1 µM.

Consider `O=C(C1CCC(F)(CCC2c3c(F)cccc3-c3cncn32)CC1)N1CCCCC1` (stereo not shown) [Compound 110a], for which the IC50 was under 0.1 µM.

As to `CN(C)C(=O)C1CCC(F)(CCC2c3c(F)cccc3-c3cncn32)CC1` (stereo not shown) [Compound 111b, 4-fluoro-4-(2-[6-fluoro-5H-imidazo[4,3-a]isoindol-5-yl]ethyl)-N,N-dimethylcyclohexane-1-carboxamide], the half-maximal inhibitory concentration (IC50) fell in the range of 0.1 to 1 µM.
